Data as given in the supplement of paper PMC13380429.

Columns and labels:
Conditions in all cases: 72 h
[1] = tested on: Caco-2; experiment: cell viability relative to DMSO; higher = less toxic
[2] = tested on: Calu-3; experiment: as above
[3] = tested on: HepG2; experiment: as above
[4] = tested on: U2OS; experiment: as above
[5] = tested on: Vero E6; experiment: as above
[6] = tested on: Caco-2; experiment: relative viability EC50 (midpoint between 100% and the lowest measured viability); higher = less toxic
[7] = tested on: Calu-3; experiment: as above
[8] = tested on: HepG2; experiment: as above
[9] = tested on: U2OS; experiment: as above
[10] = tested on: Vero E6; experiment: as above
[11] = tested on: Caco-2; experiment: drug sensitivity score (DSS) for viability; higher = more toxic; extreme values may be limits of the assay
[12] = tested on: Calu-3; experiment: as above
[13] = tested on: HepG2; experiment: as above
[14] = tested on: U2OS; experiment: as above
[15] = tested on: Vero E6; experiment: as above

Row | Structure (SMILES) | cell viability ([1]; 1 nM) [%] | cell viability ([1]; 10 nM) [%] | cell viability ([1]; 100 nM) [%] | cell viability ([1]; 1000 nM) [%] | cell viability ([1]; 10000 nM) [%] | cell viability ([2]; 1 nM) [%] | cell viability ([2]; 10 nM) [%] | cell viability ([2]; 100 nM) [%] | cell viability ([2]; 1000 nM) [%] | cell viability ([2]; 10000 nM) [%] | cell viability ([3]; 1 nM) [%] | cell viability ([3]; 10 nM) [%] | cell viability ([3]; 100 nM) [%] | cell viability ([3]; 1000 nM) [%] | cell viability ([3]; 10000 nM) [%] | cell viability ([4]; 1 nM) [%] | cell viability ([4]; 10 nM) [%] | cell viability ([4]; 100 nM) [%] | cell viability ([4]; 1000 nM) [%] | cell viability ([4]; 10000 nM) [%] | cell viability ([5]; 1 nM) [%] | cell viability ([5]; 10 nM) [%] | cell viability ([5]; 100 nM) [%] | cell viability ([5]; 1000 nM) [%] | cell viability ([5]; 10000 nM) [%] | relative viability EC50 [6] [µM] | relative viability EC50 [7] [µM] | relative viability EC50 [8] [µM] | relative viability EC50 [9] [µM] | relative viability EC50 [10] [µM] | drug sensitivity score [11] | drug sensitivity score [12] | drug sensitivity score [13] | drug sensitivity score [14] | drug sensitivity score [15]
1 | CO[C@H]1O[C@@H]2O[C@@]3(C)CC[C@H]4[C@H](C)CC[C@@H]([C@H]1C)[C@@]24OO3 [artemether] | 95.4 | 94.5 | 97.3 | 86.6 | 86.2 | 106 | 108 | 96.3 | 101 | 96.5 | 97.6 | 101 | 103 | 92.1 | 87.8 | 99.1 | 97.1 | 101 | 96.6 | 94.4 | 103 | 106 | 92.1 | 95.9 | 96.9 | > 10 | > 10 | > 10 | > 10 | > 10 | 0.4 | 0 | 0.4 | 0 | 0
2 | CCOc1nc2cccc(C(=O)O)c2n1Cc1ccc(-c2ccccc2-c2noc(=O)[nH]2)cc1 [azilsartan] | 103 | 91.4 | 91.9 | 103 | 95.7 | 94.2 | 98.2 | 96 | 93 | 91.5 | 93.5 | 103 | 102 | 108 | 102 | 102 | 93.6 | 99.5 | 93.3 | 97.5 | 99 | 102 | 98.1 | 103 | 94.3 | > 10 | > 10 | > 10 | > 10 | > 10 | 0 | 0 | 0 | 0 | 0
3 | COc1ccc(NC(=O)c2ccc(C(=N)N(C)C)cc2)c(C(=O)Nc2ccc(Cl)cn2)c1 [betrixaban] | 101 | 97.5 | 97.5 | 97.6 | 91.5 | 90.9 | 101 | 105 | 95.1 | 95.5 | 98.6 | 100 | 105 | 96.3 | 100 | 96.2 | 100 | 95.6 | 100 | 97.8 | 98.7 | 99.1 | 97.3 | 96.4 | 93.9 | > 10 | > 10 | > 10 | > 10 | > 10 | 0 | 0 | 0 | 0 | 0
4 | Cc1ccc(C23CNCC2C3)cc1 (stereo not given) [bicifadine] | 103 | 99 | 106 | 110 | 97.4 | 115 | 96 | 104 | 105 | 103 | 99.7 | 88.8 | 100 | 96.3 | 94.7 | 96.8 | 98.9 | 103 | 102 | 96.4 | 97.7 | 93.8 | 98.8 | 96.3 | 99.8 | > 10 | > 10 | > 10 | > 10 | > 10 | 0 | 0 | 0 | 0 | 0
5 | Cn1cc(C2=C(c3cn(CCCSC(=N)N)c4ccccc34)C(=O)NC2=O)c2ccccc21 [bisindolylmaleimide-IX] | 100 | 97.7 | 101 | 94.9 | 25.3 | 112 | 96.4 | 100 | 91.2 | 18.1 | 98.6 | 104 | 105 | 96.8 | 5.1 | 105 | 100 | 106 | 103 | 5.7 | 91.7 | 101 | 89.3 | 92.6 | 15 | 2.61 | 2.28 | 2.92 | 3.32 | 2.45 | 4.9 | 6 | 5.7 | 5 | 5.9
6 | CC(C)(C)OC(=O)c1ncn2c1[C@@H]1CCCN1C(=O)c1c(Br)cccc1-2 [bretazenil] | 94 | 93.9 | 99.3 | 96.1 | 100 | 90 | 92.9 | 98.2 | 99.8 | 96 | 83.1 | 94.1 | 95.2 | 105 | 103 | 98.2 | 98.8 | 105 | 92.6 | 98.2 | 91.1 | 100 | 95.5 | 96.5 | 104 | > 10 | > 10 | > 10 | > 10 | > 10 | 0 | 0 | 0 | 0 | 0
7 | CCC(C(=O)O)c1ccc(CC(C)C)cc1 (stereo not given) [butibufen] | 102 | 92.8 | 103 | 94.4 | 99.3 | 97.1 | 105 | 99.9 | 113 | 105 | 107 | 101 | 99 | 110 | 106 | 97.4 | 95.5 | 97.9 | 102 | 104 | 93.3 | 92.5 | 87.6 | 95.9 | 105 | > 10 | > 10 | > 10 | > 10 | > 10 | 0 | 0 | 0 | 0 | 0
8 | C[C@H](CS)C(=O)N1CCC[C@H]1C(=O)O [captopril] | 96.1 | 92.8 | 96.8 | 90.9 | 89.6 | 103 | 111 | 93.4 | 95.4 | 97.4 | 99.5 | 95.7 | 105 | 95.3 | 108 | 98.6 | 101 | 94.9 | 98 | 97.3 | 108 | 100 | 107 | 100 | 96.6 | > 10 | > 10 | > 10 | > 10 | > 10 | 0 | 0 | 0 | 0 | 0
9 | CC1(C)S[C@@H]2[C@H](NC(=O)C(C(=O)O)c3ccccc3)C(=O)N2[C@H]1C(=O)O (stereo not given in full) [carbenicillin] | 104 | 106 | 92.5 | 93.9 | 94.9 | 105 | 98.3 | 103 | 105 | 99.9 | 97.2 | 100 | 103 | 103 | 98 | 103 | 102 | 98.8 | 102 | 96 | 102 | 100 | 102 | 95.7 | 95.7 | > 10 | > 10 | > 10 | > 10 | > 10 | 0 | 0 | 0 | 0 | 0
10 | CC(C(=O)O)c1ccc2c(c1)[nH]c1ccc(Cl)cc12 (stereo not given) [carprofen] | 96.4 | 96.5 | 88.4 | 95.7 | 94.6 | 96.5 | 95.5 | 104 | 104 | 94 | 103 | 101 | 90.6 | 96.5 | 99.6 | 96.5 | 102 | 96.1 | 100 | 98.7 | 107 | 101 | 115 | 99.4 | 101 | > 10 | > 10 | > 10 | > 10 | > 10 | 0 | 0 | 0 | 0 | 0
11 | CNCCCOc1cc(F)c(-c2c(Cl)nc3ncnn3c2N[C@@H](C)C(F)(F)F)c(F)c1 [cevipabulin] | 102 | 110 | 72.3 | 44.7 | 48.1 | 106 | 116 | 83.4 | 43.7 | 34.7 | 96.8 | 102 | 29.3 | 21.9 | 22.8 | 94.8 | 102 | 65.8 | 25.6 | 21 | 105 | 106 | 89.5 | 11.6 | 8.3 | 0.1 | 0.237 | 0.0431 | 0.121 | 0.241 | 13.7 | 12.5 | 22.9 | 18.1 | 17.9
12 | Nc1ncnc(Nc2ccc(Cl)cc2)n1 [chlorazanil] | 116 | 97.7 | 96.5 | 101 | 103 | 104 | 101 | 103 | 87.4 | 98.4 | 96.4 | 93.9 | 88 | 93.7 | 92.5 | 101 | 96.8 | 97.8 | 98.3 | 99.6 | 99.6 | 101 | 91 | 98.6 | 101 | > 10 | > 10 | > 10 | > 10 | > 10 | 0 | 0 | 0 | 0 | 0
13 | CCN(CC)CCN(Cc1ccc(-c2ccc(C(F)(F)F)cc2)cc1)C(=O)Cn1c(SCc2ccc(F)cc2)nc(=O)c2c1CCC2 [darapladib] | 93.5 | 93.6 | 98.9 | 93.8 | 13 | 102 | 95.7 | 106 | 90.2 | 0.4 | 91.8 | 97.1 | 85.3 | 101 | 0.3 | 102 | 98.3 | 103 | 98.4 | 1.6 | 91.9 | 100 | 90.1 | 92.4 | 45.1 | 2.59 | 2.35 | 3.21 | 3.05 | 2.05 | 5.8 | 7.1 | 5.5 | 5.7 | 4.2
14 | CC[C@H](CC[C@@H](C)[C@H]1CC[C@H]2[C@@H]3CC=C4C[C@@H](O[C@@H]5O[C@H](CO)[C@@H](O)[C@H](O)[C@H]5O)CC[C@]4(C)[C@H]3CC[C@]12C)C(C)C [daucosterol] | 88.7 | 99.4 | 107 | 102 | 100 | 98.4 | 106 | 99.3 | 108 | 110 | 92.5 | 96.2 | 102 | 101 | 106 | 97.2 | 98.1 | 101 | 100 | 103 | 95.9 | 100 | 94.5 | 90.5 | 102 | > 10 | > 10 | > 10 | > 10 | > 10 | 0 | 0 | 0 | 0 | 0
